This note sets out measurements from ChEMBL document CHEMBL1201862, “PubChem BioAssay data set” (2004).

Active and inactive are the calls of the source. A value given as a limit tells only on which side of the number the result lay.

In assay [1] the target is Beta-2 adrenergic receptor (Homo sapiens, UniProt P07550). The experiment in a line: ADRB2 activation measured by internalization – cell-based, FAP fluorogen, flow cytometry, cherry pick 1, dose response (AID 588763). It counts as functional. Background: A flow cytometer gives signals particle by particle.
Chain of Beta-2 adrenergic receptor (P07550 whole entry): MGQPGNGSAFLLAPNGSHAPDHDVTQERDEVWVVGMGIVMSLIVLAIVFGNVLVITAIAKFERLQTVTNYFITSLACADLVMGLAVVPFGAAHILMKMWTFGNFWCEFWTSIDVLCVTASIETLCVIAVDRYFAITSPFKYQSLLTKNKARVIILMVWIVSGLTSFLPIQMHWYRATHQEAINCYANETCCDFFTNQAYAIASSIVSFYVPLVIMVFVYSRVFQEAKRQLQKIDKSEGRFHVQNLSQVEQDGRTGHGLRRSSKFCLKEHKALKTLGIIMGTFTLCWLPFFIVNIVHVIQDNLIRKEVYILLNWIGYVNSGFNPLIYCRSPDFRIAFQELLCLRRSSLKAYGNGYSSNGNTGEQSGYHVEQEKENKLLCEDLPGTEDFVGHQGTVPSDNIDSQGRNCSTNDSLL
The test system of assay [2] is HEK293. The experiment in a line: HEK293T cell viability loss, resazurin readout – resazurin fluorescence, cytotoxicity control for NF-kB activator project, SAR follow-up (AID 493251). The assay is classed as functional, cell-based. Conditions: Homo sapiens. On the technique in general: Alamar Blue is a resazurin reagent that responds to reducing activity.
Assay [3] has as its system HEK293. The experiment in a line: cells. Conditions: Homo sapiens.
Assay [4] deals with Tumor necrosis factor (Homo sapiens, UniProt P01375). The experiment in a line: analog potency on TNFa NF-kB signaling – cell-based, revised, SAR follow-up (AID 2337). It counts as functional.
Chain of Tumor necrosis factor (P01375 whole entry, the tested form may be a part): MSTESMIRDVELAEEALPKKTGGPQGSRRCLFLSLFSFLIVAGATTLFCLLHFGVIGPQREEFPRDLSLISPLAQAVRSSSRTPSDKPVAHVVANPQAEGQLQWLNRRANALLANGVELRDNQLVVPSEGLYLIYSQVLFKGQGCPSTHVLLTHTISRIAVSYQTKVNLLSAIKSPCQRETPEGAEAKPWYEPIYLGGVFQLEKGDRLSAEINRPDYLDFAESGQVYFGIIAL
The target of assay [5] is T1, Nucleotide-binding oligomerization domain-containing protein 1 (Homo sapiens, UniProt Q9Y239).
T1 sequence (Q9Y239 whole entry): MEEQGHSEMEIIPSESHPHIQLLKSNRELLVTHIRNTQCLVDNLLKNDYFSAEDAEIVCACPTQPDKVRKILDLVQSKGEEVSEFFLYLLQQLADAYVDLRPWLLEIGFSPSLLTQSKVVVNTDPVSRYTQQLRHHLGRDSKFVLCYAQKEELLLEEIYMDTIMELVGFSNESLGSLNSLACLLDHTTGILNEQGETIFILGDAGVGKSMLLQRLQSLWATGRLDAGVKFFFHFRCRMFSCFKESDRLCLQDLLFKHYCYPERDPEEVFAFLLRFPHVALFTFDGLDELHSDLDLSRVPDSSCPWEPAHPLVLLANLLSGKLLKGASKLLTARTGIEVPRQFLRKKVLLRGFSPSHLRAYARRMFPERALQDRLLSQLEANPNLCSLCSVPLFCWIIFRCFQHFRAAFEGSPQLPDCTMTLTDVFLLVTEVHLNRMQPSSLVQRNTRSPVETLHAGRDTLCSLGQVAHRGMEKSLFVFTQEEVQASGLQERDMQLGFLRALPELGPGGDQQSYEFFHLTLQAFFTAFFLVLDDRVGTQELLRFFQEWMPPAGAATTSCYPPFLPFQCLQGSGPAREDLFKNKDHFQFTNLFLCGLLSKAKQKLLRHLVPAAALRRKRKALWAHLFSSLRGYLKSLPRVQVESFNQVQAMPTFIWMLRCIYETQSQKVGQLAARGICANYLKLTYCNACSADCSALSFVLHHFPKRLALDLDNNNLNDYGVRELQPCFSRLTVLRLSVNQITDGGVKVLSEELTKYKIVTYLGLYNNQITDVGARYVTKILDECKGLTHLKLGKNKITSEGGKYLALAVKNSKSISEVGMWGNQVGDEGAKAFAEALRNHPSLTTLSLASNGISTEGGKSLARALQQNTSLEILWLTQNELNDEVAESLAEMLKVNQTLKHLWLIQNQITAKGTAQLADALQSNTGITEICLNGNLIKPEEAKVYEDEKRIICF
In words: blockers of NOD1 pathway activity – revised, SAR follow-up (AID 2333). It counts as functional.

Assay [6] concerns the target G-protein coupled receptor 55 (Homo sapiens, UniProt Q9Y2T6). In words: blockers of GPR55 signalling, imaged – imaging, image-based, counter-screen for GPR35 antagonist project, SAR follow-up (AID 2397). The assay is classed as functional. (In general: Counterscreens check selectivity or assay interference.)
Assay [7] in a line: non-specific 3'UTR reporter inhibition in Clone20-Shn3RL – cell-based, Renilla luciferase, cherry-picked, counter-screen for Shn3 inhibitor project, dose response (AID 624133). It counts as functional.
Assay [8] in a line: Counterscreen for AddAB inhibitors: absorbance-based bacterial cell-based high throughput dose response assay for inhibitors of bacterial viability. [Related pubchem assays (depositor defined):AID435030, AID449728, AID449731, AID488942, AID488955, AID488956]. The assay is classed as functional.
Assay [9] is described as follows: loss of viability in HepG2 cells – cell-based, CellTiter-Glo, cherry-picked, cytotoxicity control for Shn3 inhibitor project, dose response (AID 624134). The assay is classed as functional.
Assay [10] in a line: cells. The assay is classed as functional, cell-based.
Assay [11] addresses Heat shock protein HSP 90-alpha (Homo sapiens, UniProt P07900). It counts as functional, organism-based.
A short description of assay [12]: cells. It counts as functional, cell-based. The source holds these as a separate data set.
Assay [13] can be described thus: reduction of Shn3 3'UTR-driven luciferase in osteoblasts – cell-based, Clone20 osteoblasts, firefly luciferase, cherry-picked, dose response (AID 624132).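 Further: firefly luciferase luminescence from reporter carrying the Shn3 3'UTR in osteoblasts.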 It counts as functional.
Assay [14] addresses Exodeoxyribonuclease V (Escherichia coli (strain K12), UniProt P04993+P07648+P08394). In words: RecBCD inhibition via phage-restricted bacterial growth – absorbance, V66 E. coli, mutant T4 phage, counter-screen for AddAB inhibitor project, dose response (AID 492957). The assay is classed as functional, cell-based, Escherichia coli str. K-12 substr. MG1655.
Assay [15] concerns HEK293. In words: EBV LMP1 TES2 canonical NF-kB signalling blockers – cell-based, HEK293, luciferase, cherry-pick, dose response (AID 588343). The assay is classed as functional. Conditions: Homo sapiens.
For assay [16], the target named is T2, Mannose-6-phosphate isomerase (Homo sapiens, UniProt P34949).
T2 sequence (P34949 whole entry): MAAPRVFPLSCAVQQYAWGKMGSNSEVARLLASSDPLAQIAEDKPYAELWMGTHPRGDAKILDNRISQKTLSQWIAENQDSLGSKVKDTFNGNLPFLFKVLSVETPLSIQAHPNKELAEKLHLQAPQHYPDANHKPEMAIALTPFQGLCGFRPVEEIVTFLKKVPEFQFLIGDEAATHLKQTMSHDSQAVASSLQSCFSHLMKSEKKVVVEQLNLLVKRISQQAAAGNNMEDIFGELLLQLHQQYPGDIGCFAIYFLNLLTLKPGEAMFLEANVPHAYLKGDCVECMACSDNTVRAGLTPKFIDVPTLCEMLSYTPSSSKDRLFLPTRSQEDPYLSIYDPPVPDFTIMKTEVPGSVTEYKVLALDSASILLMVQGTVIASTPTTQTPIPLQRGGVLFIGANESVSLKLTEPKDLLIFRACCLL
The experiment in a line: phosphomannose isomerase inhibition – biochemical, fluorescence intensity, confirmation (AID 1535).

Assay [17] addresses Trypsin (Sus scrofa, UniProt P00761). In words: trypsin protease activity blockade – biochemical, quenched peptide fluorescence, cherry-pick, selectivity assay for Rce1 protease inhibitor project, dose response (AID 488789).
Assay [18] deals with T3, Polyadenylate-binding protein 1 (Homo sapiens, UniProt P11940). In words: MLLE binding blockers, Cy5 peptide tracer – biochemical, fluorescence polarization, Cy5-PAM2 peptide, secondary, miRNA deadenylation inhibitor project, dose response (AID 602260). Conditions: read-out: IC50_Mean. It counts as functional.
T3 sequence (P11940 whole entry, the tested form may be a part): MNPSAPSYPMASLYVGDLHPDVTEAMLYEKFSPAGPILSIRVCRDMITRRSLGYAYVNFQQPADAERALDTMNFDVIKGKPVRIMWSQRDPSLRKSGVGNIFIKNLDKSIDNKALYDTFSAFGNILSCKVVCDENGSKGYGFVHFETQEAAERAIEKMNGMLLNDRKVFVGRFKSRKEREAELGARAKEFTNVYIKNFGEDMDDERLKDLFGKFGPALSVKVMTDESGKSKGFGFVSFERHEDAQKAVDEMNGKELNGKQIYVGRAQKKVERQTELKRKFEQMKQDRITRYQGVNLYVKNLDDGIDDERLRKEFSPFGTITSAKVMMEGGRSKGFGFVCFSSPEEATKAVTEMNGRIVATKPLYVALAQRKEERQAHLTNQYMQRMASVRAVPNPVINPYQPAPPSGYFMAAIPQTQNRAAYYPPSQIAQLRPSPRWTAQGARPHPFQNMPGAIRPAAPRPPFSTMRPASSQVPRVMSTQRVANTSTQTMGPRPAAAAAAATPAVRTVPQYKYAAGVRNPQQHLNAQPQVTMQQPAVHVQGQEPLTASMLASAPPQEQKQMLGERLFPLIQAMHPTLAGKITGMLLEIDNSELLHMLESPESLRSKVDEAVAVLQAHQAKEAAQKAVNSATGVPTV
The target in assay [19] is T3, Polyadenylate-binding protein 1. In words: MLLE domain peptide-binding blockers, IC50 – biochemical, fluorescence polarization, FITC-PAM2 peptide, dose response (AID 602259). The assay is classed as functional. The conditions noted are these: read-out: IC50_Mean.
Assay [20] has as its target CAAX prenyl protease 2 (Homo sapiens, UniProt Q9Y256). In words: inhibition of Ras-converting CAAX protease Rce1 – biochemical, yeast membranes, quenched-peptide fluorescence, cherry-pick, dose response (AID 588849).
Assay [21] concerns the target T4, CAAX prenyl protease 2 (Saccharomyces cerevisiae S288c, UniProt Q03530).
T4 sequence (Q03530 whole entry): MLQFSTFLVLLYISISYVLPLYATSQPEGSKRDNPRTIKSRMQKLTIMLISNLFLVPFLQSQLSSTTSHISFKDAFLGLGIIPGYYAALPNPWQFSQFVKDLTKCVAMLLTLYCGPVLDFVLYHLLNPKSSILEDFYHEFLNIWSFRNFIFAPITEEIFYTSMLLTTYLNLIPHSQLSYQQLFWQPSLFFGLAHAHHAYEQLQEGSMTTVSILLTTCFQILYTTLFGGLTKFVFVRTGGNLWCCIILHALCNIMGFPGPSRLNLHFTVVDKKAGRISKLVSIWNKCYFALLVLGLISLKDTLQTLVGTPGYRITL
It counts as biochemical.

Chain of G-protein coupled receptor 55 (Q9Y2T6 whole entry): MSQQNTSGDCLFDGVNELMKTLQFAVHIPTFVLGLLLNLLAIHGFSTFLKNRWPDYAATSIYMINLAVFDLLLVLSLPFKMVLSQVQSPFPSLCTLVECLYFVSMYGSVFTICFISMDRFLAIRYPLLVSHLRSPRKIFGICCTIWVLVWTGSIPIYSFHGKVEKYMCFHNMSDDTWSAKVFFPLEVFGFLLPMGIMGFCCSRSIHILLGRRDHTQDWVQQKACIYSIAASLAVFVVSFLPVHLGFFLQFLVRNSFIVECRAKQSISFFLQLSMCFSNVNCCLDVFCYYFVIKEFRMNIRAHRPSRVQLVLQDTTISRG
Chain of Exodeoxyribonuclease V (P04993 whole entry): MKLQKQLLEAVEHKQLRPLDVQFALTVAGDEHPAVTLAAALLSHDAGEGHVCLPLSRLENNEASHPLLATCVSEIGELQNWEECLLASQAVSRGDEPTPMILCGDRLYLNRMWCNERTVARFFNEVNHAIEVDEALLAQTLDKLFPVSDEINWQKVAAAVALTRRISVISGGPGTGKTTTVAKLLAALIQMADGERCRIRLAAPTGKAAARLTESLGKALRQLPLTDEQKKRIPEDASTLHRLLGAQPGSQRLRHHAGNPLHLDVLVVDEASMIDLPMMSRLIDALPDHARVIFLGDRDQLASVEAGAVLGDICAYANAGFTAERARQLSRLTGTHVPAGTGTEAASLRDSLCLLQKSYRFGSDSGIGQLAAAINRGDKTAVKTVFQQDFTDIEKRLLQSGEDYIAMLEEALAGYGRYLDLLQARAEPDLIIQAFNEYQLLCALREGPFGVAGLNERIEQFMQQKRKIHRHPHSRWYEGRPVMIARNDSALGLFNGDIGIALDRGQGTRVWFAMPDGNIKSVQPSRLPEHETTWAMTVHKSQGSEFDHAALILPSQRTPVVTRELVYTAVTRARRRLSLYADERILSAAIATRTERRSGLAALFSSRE
Chain of Exodeoxyribonuclease V (P07648 whole entry): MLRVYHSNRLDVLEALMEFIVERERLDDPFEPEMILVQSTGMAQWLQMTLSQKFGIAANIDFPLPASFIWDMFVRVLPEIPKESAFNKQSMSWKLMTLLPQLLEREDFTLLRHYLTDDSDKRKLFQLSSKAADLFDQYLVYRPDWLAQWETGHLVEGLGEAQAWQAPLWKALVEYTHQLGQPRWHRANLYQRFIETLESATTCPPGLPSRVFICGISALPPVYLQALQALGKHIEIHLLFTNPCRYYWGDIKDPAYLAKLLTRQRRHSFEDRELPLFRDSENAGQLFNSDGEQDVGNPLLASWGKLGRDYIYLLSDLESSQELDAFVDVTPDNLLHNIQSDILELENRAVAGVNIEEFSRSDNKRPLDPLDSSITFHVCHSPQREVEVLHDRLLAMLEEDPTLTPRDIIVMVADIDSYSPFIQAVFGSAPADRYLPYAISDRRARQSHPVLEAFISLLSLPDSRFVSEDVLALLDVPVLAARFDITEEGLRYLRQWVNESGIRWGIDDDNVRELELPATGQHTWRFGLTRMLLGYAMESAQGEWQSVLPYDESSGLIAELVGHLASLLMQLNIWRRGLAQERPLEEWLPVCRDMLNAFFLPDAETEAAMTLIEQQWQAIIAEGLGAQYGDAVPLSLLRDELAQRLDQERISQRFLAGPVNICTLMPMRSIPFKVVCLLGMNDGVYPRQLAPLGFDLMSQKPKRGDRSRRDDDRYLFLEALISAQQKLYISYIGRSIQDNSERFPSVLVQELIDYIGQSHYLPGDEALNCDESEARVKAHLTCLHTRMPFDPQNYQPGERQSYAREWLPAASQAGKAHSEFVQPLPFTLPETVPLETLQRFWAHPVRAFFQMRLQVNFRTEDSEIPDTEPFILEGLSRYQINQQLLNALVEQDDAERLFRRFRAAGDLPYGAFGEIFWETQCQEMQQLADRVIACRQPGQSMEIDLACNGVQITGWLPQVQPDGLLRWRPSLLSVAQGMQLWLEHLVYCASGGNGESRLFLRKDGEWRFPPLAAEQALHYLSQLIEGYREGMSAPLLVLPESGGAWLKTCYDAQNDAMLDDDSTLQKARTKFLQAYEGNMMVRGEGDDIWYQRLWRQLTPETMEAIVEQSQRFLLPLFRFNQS
Chain of Exodeoxyribonuclease V (P08394 whole entry): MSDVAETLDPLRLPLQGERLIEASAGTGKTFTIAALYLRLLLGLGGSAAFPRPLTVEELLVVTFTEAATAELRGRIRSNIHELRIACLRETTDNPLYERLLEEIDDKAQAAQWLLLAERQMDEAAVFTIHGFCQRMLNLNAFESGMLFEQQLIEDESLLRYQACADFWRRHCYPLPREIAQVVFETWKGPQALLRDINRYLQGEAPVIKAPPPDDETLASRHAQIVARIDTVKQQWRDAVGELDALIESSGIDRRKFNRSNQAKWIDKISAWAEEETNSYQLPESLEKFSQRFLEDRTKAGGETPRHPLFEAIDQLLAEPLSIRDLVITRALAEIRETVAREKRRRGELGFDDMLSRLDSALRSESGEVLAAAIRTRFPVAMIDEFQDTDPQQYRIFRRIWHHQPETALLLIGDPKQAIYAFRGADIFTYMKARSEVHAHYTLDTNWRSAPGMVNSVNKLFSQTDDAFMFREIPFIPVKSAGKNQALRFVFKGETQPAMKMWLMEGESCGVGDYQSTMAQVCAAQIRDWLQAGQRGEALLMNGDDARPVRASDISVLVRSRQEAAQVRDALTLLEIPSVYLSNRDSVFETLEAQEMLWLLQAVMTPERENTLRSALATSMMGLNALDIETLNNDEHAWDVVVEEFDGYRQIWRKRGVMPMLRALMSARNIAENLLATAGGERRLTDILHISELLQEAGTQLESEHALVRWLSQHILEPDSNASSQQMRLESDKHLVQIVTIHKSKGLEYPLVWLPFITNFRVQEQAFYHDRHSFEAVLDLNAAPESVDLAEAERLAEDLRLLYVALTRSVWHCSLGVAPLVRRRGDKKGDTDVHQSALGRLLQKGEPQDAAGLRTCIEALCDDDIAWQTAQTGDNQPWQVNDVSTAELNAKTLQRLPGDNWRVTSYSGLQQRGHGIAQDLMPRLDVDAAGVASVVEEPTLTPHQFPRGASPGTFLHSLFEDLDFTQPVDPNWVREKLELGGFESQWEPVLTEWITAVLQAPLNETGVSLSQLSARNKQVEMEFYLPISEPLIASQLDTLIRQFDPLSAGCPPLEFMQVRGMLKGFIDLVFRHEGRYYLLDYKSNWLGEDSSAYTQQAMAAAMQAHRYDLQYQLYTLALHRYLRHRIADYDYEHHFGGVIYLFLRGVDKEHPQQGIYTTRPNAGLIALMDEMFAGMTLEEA
Chain of Trypsin (P00761 whole entry): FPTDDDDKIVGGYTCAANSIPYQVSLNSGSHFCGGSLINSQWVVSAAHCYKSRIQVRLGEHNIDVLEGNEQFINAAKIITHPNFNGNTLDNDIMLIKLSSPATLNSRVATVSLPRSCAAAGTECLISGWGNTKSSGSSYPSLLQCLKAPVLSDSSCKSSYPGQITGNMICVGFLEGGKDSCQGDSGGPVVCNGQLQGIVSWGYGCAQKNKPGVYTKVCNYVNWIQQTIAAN

A word on the EC50: it is the concentration that produces a half-maximal response. Consider `CCCCN(CCCC)c1nc2ccccc2nc1NS(=O)(=O)c1ccc(NC(C)=O)cc1`, for which, in [1], the EC50 is 0.0203 µM (active).
Turning to `O=C(O)CCc1nc(-c2ccccc2)no1`, in assay [2], the IC50 was > 80 µM (inactive).
As for `CCc1cc(C(=O)NC2CCCc3c2cnn3-c2ccc(F)cc2F)no1` (stereo not given), the IC50 in assay [3] was > 20 µM (inactive); in assay [4] it was > 20 µM (inactive); in [5], 10.4 µM (active).
Consider `c1ccc(Cn2ncc3c(N4CCN(c5ccccc5)CC4)ncnc32)cc1`, for which the IC50 in assay [6] is 29.1 µM (inactive).
On the same count and under the same terms, the same measure for `COC(=O)CSc1nc2ccc(NC(=O)c3ccccc3C(=O)N3CCOCC3)cc2s1`: > 32 µM (inactive).
A word on the AC50: it is the midpoint of the concentration-response curve, whichever way the signal moves. As for `CC(C)C(=O)NC(c1ccc(Cl)cc1Cl)c1ccc2cccnc2c1O` (stereo not given), the AC50 in [7] is 1.6 µM (active); in assay [9] it was 1.11 µM (active); in assay [11] it was 25.5 µM (active); in [13], 0.691 µM (active); in assay [15], 4.52 µM (active). Further, the IC50 in [8] and in assay [14] was > 119 µM (inactive) each time. The EC50 was 7.49 µM (active) in assay [10] and > 350 µM (not active) in assay [12].
`Clc1nss/c1=N\c1nc2ccccc2[nH]1`: in [16], the IC50 was 98.1 µM (active).
For the compound `COC(=O)Nc1nnc(-c2ccncc2)s1`, the AC50 is 12.5 µM (active) in [17], 5.84 µM (active) in [20] and 9.58 µM (active) in assay [21]. The IC50 in assay [18] and in assay [19] was > 66 µM (inactive) in each case.
Take `CCOC(=O)c1ccc(NC(=O)c2ccc(CCN3CCc4ccccc4C3)cc2)cc1`: the figures for the IC50 in [3], in assay [4] and in [5] were > 20 µM (inactive), 10.8 µM (active) and 10.6 µM (active), respectively.
